Test results: patent US6365643B1, “Photoinitiators for cationic curing” (Th. Goldschmidt AG, priority 1999, dated 2002)
Read-outs that look alike come from different tables or passages of the source.

Tests used:
[1] = Miscibility with organopolysiloxanes containing epoxy groups; type: physicochemical
[2] = Solubility in white spirit; type: physicochemical
Description: The solubility of the cationic photoinitiators of the invention was compared with the solubility of commercial, hydroxyl-bearing cationic photoinitiators.

Question: With `CCCCCCCCCCCCC(O)COc1ccc([I+]c2ccccc2)cc1` (stereo not drawn) [CD-1012] as the compound, how does the “miscibility with organopolysiloxanes containing epoxy groups” value [1] read?
Answer: no miscibility

Question: And the “solubility in white spirit” value [2]?
Answer: insoluble

Question: And the “solubility in white spirit” value ([2]; Table 1, Comparison 1)?
Answer: insoluble
